Test [1] has as its system E. coli ML35p inner membrane. Put plainly: Inner membrane disruption (β-galactosidase leakage, ONPG). The format is cell-based, Escherichia coli. The procedure:
Interactions with Bacterial Membranes. Interaction of the peptides with bacterial membranes in different phosphate buffers were evaluated using E. coli ML35p, constructed in our laboratory. At first, competent cells of E. coli ML35 were produced by conventional competent cell preparation method, then transformed with pBR322 plasmid. Transformed colonies were selected after growing on Luria-agar containing 50 μg/mL ampicillin. A single transformed colony was grown in presence of ampicillin first in Luria broth and then in MHBII and stored as 20% glycerol stock at −80° C. This frozen stock, on the day of the experiment, was thawed and grown in MHBII containing ampicillin up to OD600 nm=0.8-0.9, washed with PBS and then suspended in the respective buffer up to the required OD600 nm for use.
Membrane Disruptions. The outer and the inner membrane disruptions by the peptides were evaluated by incubating bacterial suspension with peptides and then measuring the activity of enzymes leaked out of the cells. 100 μL of 10× concentration of peptide in water was incubated with 900 μL bacterial suspension (OD600 nm˜0.1) in respective buffer for 3 hours at room temperature with gentle rotation. […]
The inner membrane disruption was tested by using the activity of β-galactosidase present in the […] of E. coli ML35p, which lacks lactose-permease. Peptides when disrupt the inner membrane enough to cause β-galactosidase to come out, the degree of disruption can be measured by the virtue of the kinetics of the enzyme and using a substrate called ortho-Nitrophenyl-β-galactoside (ONPG). β-galactosidase mediated hydrolyzed product of ONPG has an absorbance λmax=420 nm. Supernatant collected from the incubation of peptide with bacteria was added with ONPG solution in DPBS and incubated at 35° C. and continuous absorbance readings. The slope of the linear section of the absorbance curve (absorbance vs time), was used as a measure of membrane disruption and the % Disruption was calculated as: Equation 8: […]

Test [2] deals with H-358 lung epithelial cancer cells. Put plainly: Cytotoxicity (Alamar blue). The format is cell-based, human. Particulars: ~6 hours, 10% fetal bovine serum. The procedure: FIG. 12 is a graph showing comparison of toxicities against Lung Primary Epithelial cells and Lung Cancerous Epithelial Cells, derived from H358 cell-line. Non-linear regression analysis of six-hour cytotoxicity data was performed to identify the concentration to achieve 50% lethality (LD50) for each toxic peptide. Each peptide was tested in triplicate.
Cytotoxicity. Cells were seeded in complete growth medium (Minimal Essential Medium, MEMα, supplemented with 10% Fetal Bovine Serum) into a culture-treated 96-well plate at a density of 25000 cells per well. After 24 hours, culture media was aspirated and replaced with media containing the selected peptide. No-serum experiments were conducted in Opti-MEM I reduced serum media (ThermoFisher, 31985062) and 10% serum experiments were performed in complete growth medium. In all cases, DBPS was used as a vehicle only control and buffer to serially dilute the peptides. After exposure to the peptides or vehicle-alone for the defined period, Alamar blue dye (resazurin) was added directly to the media and allowed to incubate for two hours. Following incubation, A570/A600 measurements were made to calculate reduction of resazurin dye to resorufin. A ratio of reduction in treated versus untreated cells was calculated in order to determine overall cell viability. The human cells were always maintained in a 37° C. incubator under 5% CO2. […]

In the case of “KRFKKFFKKLK (SEQ ID NO: 2) [ATRA1, first 11 residues of NA-CATH]”, the “inner membrane disruption relative to HCMAB” value in test [1] (10 mM phosphate buffer) is “highest”; in test [1] (DPBS, HCMAB = 100%), “below 10%”.
Regarding “RRWKRFFKRWK (SEQ ID NO: 15) [ATRA1-R3W2]”, in test [1] (DPBS, HCMAB = 100%), the “inner membrane disruption relative to HCMAB” value is reported as “highest degree of inner membrane disruption”.
In test [2], “RRWKRFFKRWKGGVIGVTFPF (SEQ ID NO: 50) [ATRA1-R3W2-HYD, ATRA1-R3W2 with hydrophobic tail of NA-CATH joined by -GG-]” yielded an LD50 of around 24.5 µM.
